Earlier results, collected in US5843995A, “Inhibition of HIV-1 replication using oligocarbamate derivatives” (University of Medicine and Dentistry of New Jersey, priority 1997, dated 1998).

Test system: HIV-1
Details: cells pretreated with peptide 24 hours prior to infection

Compound: CC(=O)N[C@H](CCCNC(=N)N)C(=O)N[C@H](CCCNC(=N)N)C(=O)N[C@H](CCCNC(=N)N)C(=O)N[C@H](CCCNC(=N)N)C(=O)N[C@H](CCCNC(=N)N)C(=O)N[C@H](CCCNC(=N)N)C(=O)N[C@H](CCCNC(=N)N)C(=O)N[C@H](CCCNC(=N)N)C(=O)N[C@H](CCCNC(=N)N)C(N)=O [N-acetyl-(DArg)9 -NH2]
- mechanism of antiviral activity: via inhibition of viral entry
